pIC50: −log10 of the molar value.
Assays:
[1] = target: T1, mouse CD38 (Mus musculus, UniProt P56528); assay: mouse recombinant CD38 enzyme assay (hydrolysis of NAD+); format: biochemical; details: read-out: mCD38 BioChem IC50
T1 sequence (P56528 1-304): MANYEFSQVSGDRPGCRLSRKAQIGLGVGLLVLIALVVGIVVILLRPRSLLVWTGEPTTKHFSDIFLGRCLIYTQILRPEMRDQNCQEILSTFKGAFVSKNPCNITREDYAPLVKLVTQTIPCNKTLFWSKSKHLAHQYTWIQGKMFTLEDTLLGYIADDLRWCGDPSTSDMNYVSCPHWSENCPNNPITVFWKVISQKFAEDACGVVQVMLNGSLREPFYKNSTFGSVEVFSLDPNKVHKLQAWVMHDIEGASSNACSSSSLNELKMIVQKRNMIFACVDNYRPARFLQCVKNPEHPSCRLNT
How it was run: (§1)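 Cell-free recombinant enzyme, NAD+ substrate, 60 min at RT. Stop/detect: ethanol/ADH plus semicarbazide and a CD38 inhibitor (15 min), then NaOH, then resazurin/diaphorase (15 min). Remaining NAD+ read as resorufin fluorescence, Ex/Em 540/590 nm. Inhibition fitted from dose responses.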

[2] = target: T2, human CD38 (Homo sapiens, UniProt P28907); assay: human recombinant CD38 enzyme assay (hydrolysis of NAD+); format: biochemical; details: human recombinant CD38, 0.4 nM enzyme, 62.5 μM NAD+; read-out: hCD38 BioChem IC50
T2 sequence (P28907 1-300): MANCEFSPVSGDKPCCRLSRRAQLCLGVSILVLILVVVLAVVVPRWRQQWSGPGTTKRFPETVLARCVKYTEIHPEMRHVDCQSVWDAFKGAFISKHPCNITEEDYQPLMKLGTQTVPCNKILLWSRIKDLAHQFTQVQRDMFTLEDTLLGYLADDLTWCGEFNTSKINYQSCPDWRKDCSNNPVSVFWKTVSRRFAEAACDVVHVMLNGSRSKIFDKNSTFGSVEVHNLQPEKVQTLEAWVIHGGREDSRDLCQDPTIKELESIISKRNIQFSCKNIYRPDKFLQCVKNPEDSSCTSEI
How it was run: as §1

[3] = target: T3, endogenous CD38 in HL60 cells (Homo sapiens, UniProt P28907); assay: cellular CD38 assay in HL60 cells (cellular NAD levels); format: cell-based; details: all-trans retinoic acid, 24 hours, read-out: hCD38 HL60 ATRA NAD Cell Diaphorase IC50
T3 construct: endogenous in cells; host or cells: HL60 (leukemic cells, treated with all-trans retinoic acid)
T3 sequence (P28907 1-300): T2 sequence (P28907 1-300)
Experimental: The compounds described herein were also assayed for their ability to inhibit the endogenous CD38 in a native cellular environment in the cellular CD38 assay, which measures the ability of the compound to modulate cellular NAD levels. […] The assays were initiated by plating 20 μL of HL60 cells in culture medium, at a density of 20000 cells per well to a 384-well Corning™ Multiwell Plates. Compounds in DMSO were added to the plates in a volume of 120 nL using the Labcyte Echo Liquid Handlers. […] The plates are then incubated for 24 hours. 50 μL of a readout-solution containing 0.2 U/mL Diaphorase enzyme, 40 uM resazurin, 10 uM FMN, 0.8 U/mL Alcohol dehydrogenase, 3% ethanol, 0.4 mg/mL bovine serum albumin, 0.2% Triton X-100 in 100 mM Tris-HCl, 30 mM EDTA, pH 8.4. The plates were read for fluorescence (Excitation/Emission=540 nm/590 nm) using an EnVision plate reader after 60 mins of incubation at ambient temperature. Note that, in Table 5, the “Compound No” corresponds to the compound numbers in Table 1.

Row | pIC50 [1] | pIC50 [2] | pIC50 [3] | SMILES
1 | 7.49 | 6.70 | 5.13 | COCCO[C@H]1CC[C@H](NC(=O)c2nc(-n3ccnc3)ccc2F)CC1 [Compound 43, 3-fluoro-6-(1H-imidazol-1-yl)-N-(4-(2-methoxyethoxy)cyclohexyl)picolinamide]
2 | 8.52 | 7.64 | 5.79 | CO[C@H]1CC[C@H](NC(=O)c2cc(C)cc(-n3ccnc3)n2)CC1 [Compound 96, 6-(1H-imidazol-1-yl)-N-(4-methoxycyclohexyl)-4-methylpicolinamide]
3 | 7.53 | 7.47 | 5.66 | O=C(N[C@H]1C[C@H](c2cccc(F)c2)C1)c1nccc(-n2ccnc2)n1 [Compound 237, N-((1r,3r)-3-(3-fluorophenyl)cyclobutyl)-4-(1H-imidazol-1-yl)pyrimidine-2-carboxamide]
4 | 6.12 | 5.82 | 5.13 | O=C(NC12CC(C1)C2)c1cccc(-n2ccnc2)n1 [Compound 16, N-(bicyclo[1.1.1]pentan-1-yl)-6-(1H-imidazol-1-yl)picolinamide]
5 | 7.00 | 6.38 | 5.04 | CC(=O)N1CC2(CC(NC(=O)c3cccc(-n4ccnc4)n3)C2)C1 [Compound 47, N-(2-acetyl-2-azaspiro[3.3]heptan-6-yl)-6-(1H-imidazol-1-yl)picolinamide]
6 | 7.99 | 8.24 | 6.03 | CC(C)(O)c1ccc(NC(=O)c2nccc(-n3ccnc3)n2)cc1 [Compound 357, N-(4-(2-hydroxypropan-2-yl)phenyl)-4-(1H-imidazol-1-yl)pyrimidine-2-carboxamide]
7 | 8.66 | 8.44 | 5.95 | COc1cc(C(=O)Nc2ccc(C(F)(F)F)nc2)nc(-n2ccnc2)c1 [Compound 221, 6-(1H-imidazol-1-yl)-4-methoxy-N-(6-(trifluoromethyl)pyridin-3-yl)picolinamide]
8 | 8.15 | 7.80 | 6.20 | Cc1ccc(-n2ccnc2)nc1C(=O)Nc1cccnc1 [Compound 26, 6-(1H-imidazol-1-yl)-3-methyl-N-(pyridin-3-yl)picolinamide]

The next lines start with the compound.

Row | SMILES | pIC50 [1] | pIC50 [2] | pIC50 [3]
9 | CC(C)(O)c1cc(C(=O)Nc2ccc(C(F)F)nc2)nc(-n2ccnc2)n1 [Compound 158, N-(6-(difluoromethyl)pyridin-3-yl)-6-(2-hydroxypropan-2-yl)-2-(1H-imidazol-1-yl)pyrimidine-4-carboxamide] | 6.73 | 6.64 | 5.40
10 | Cn1cncc1-c1nc(C(=O)Nc2ccc(C(F)(F)F)nc2)cc(C2(C)COC2)n1 [Compound 309, 2-(1-methyl-1H-imidazol-5-yl)-6-(3-methyloxetan-3-yl)-N-(6-(trifluoromethyl)pyridin-3-yl)pyrimidine-4-carboxamide] | 8.89 | 8.38 | 6.03
11 | Cc1ncc(-c2cncn2C)nc1C(=O)Nc1ccc(C(F)(F)F)nc1 [Compound 296, 3-methyl-6-(1-methyl-1H-imidazol-5-yl)-N-(6-(trifluoromethyl)pyridin-3-yl)pyrazine-2-carboxamide] | 8.00 | 8.06 | 5.94
12 | O=C(Nc1ccc(C(F)(F)F)nc1)c1ccc(F)c(-n2ccnc2)n1 [Compound 53, 5-fluoro-6-(1H-imidazol-1-yl)-N-(6-(trifluoromethyl)pyridin-3-yl)picolinamide] | 8.00 | 8.00 | 6.17
13 | COCCOc1cc(C(=O)Nc2ccc(C(F)(F)F)nc2)nc(-c2cncn2C)n1 [Compound 267, 6-(2-methoxyethoxy)-2-(1-methyl-1H-imidazol-5-yl)-N-(6-(trifluoromethyl)pyridin-3-yl)pyrimidine-4-carboxamide] | 9.52 | 8.60 | 6.39
14 | COc1cc(-c2cncn2C)nc(C(=O)N[C@H]2CC[C@H](OC)CC2)n1 [Compound 192, 4-Methoxy-N-((1r,4r)-4-methoxycyclohexyl)-6-(1-methyl-1H-imidazol-5-yl)pyrimidine-2-carboxamide] | 8.26 | 7.34 | 5.42
15 | O=C(Nc1ccc(C(F)F)nc1)c1cc(C2CCOCC2)nc(-n2ccnc2)n1 [Compound 195, N-(6-(difluoromethyl)pyridin-3-yl)-2-(1H-imidazol-1-yl)-6-(tetrahydro-2H-pyran-4-yl)pyrimidine-4-carboxamide] | 8.00 | 7.84 | 5.80
16 | COc1cc(C(=O)N[C@H]2CC[C@H](OC)CC2)nc(-n2ccnc2)n1 [Compound 125, 2-(1H-imidazol-1-yl)-6-methoxy-N-((1r,4r)-4-methoxycyclohexyl)pyrimidine-4-carboxamide] | 8.40 | 7.72 | 5.61
17 | Cn1cncc1-c1cccc(C(=O)Nc2cccnc2)n1 [Compound 59, 6-(1-Methyl-1H-imidazol-5-yl)-N-(pyridin-3-yl)picolinamide] | 7.74 | 7.60 | 6.11
18 | Cn1cncc1-c1nccc(C(=O)NC2CC3(C2)CC(F)(F)C3)n1 [Compound 82, N-(6,6-difluorospiro[3.3]heptan-2-yl)-2-(1-methyl-1H-imidazol-5-yl)pyrimidine-4-carboxamide] | 8.52 | 8.00 | 5.97
19 | Cn1cncc1-c1nc(C(=O)N[C@H]2C[C@H](C(C)(C)O)C2)cc(C2CCOCC2)n1 [Compound 283, N-((1r,3r)-3-(2-hydroxypropan-2-yl)cyclobutyl)-2-(1-methyl-1H-imidazol-5-yl)-6-(tetrahydro-2H-pyran-4-yl)pyrimidine-4-carboxamide] | 8.37 | 7.74 | 5.24
20 | Cn1cncc1-c1nccc(C(=O)Nc2ccc(C(F)(F)F)nc2)n1 [Compound 69, 2-(1-methyl-1H-imidazol-5-yl)-N-(6-(trifluoromethyl)pyridin-3-yl)pyrimidine-4-carboxamide] | 8.70 | 8.52 | 6.32
21 | COCCO[C@H]1CC[C@H](NC(=O)c2cc(C(F)(F)F)nc(-n3ccnc3)n2)CC1 [Compound 157, 2-(1H-imidazol-1-yl)-N-((1r,4r)-4-(2-methoxyethoxy)cyclohexyl)-6-(trifluoromethyl)pyrimidine-4-carboxamide] | 7.32 | 6.92 | 5.14
22 | Cn1cncc1-c1cc(C(C)(C)C)nc(C(=O)Nc2ccc(C(F)F)nc2)n1 [Compound 189, 4-(tert-butyl)-N-(6-(difluoromethyl)pyridin-3-yl)-6-(1-methyl-1H-imidazol-5-yl)pyrimidine-2-carboxamide] | 6.58 | 6.48 | 5.07
23 | CO[C@H]1CC[C@H](NC(=O)c2cc([C@H]3CC[C@H](OC)CC3)nc(-c3cncn3C)n2)CC1 [Compound 316, N,6-bis((1r,4R)-4-methoxycyclohexyl)-2-(1-methyl-1H-imidazol-5-yl)pyrimidine-4-carboxamide] | 8.70 | 7.82 | 5.83
24 | Cc1cc(-c2cncn2C)nc(C(=O)Nc2ccc(C(F)F)nc2)n1 [Compound 202, N-(6-(Difluoromethyl)pyridin-3-yl)-4-methyl-6-(1-methyl-1H-imidazol-5-yl)pyrimidine-2-carboxamide] | 8.96 | 8.55 | 6.64

— patent US20230116972A1, “CD38 MODULATORS AND METHODS OF USE THEREOF” (Cytokinetics, Inc., priority 2021, published 2023)
